From patent US20250188110A1, “SPECIFIC SMALL MOLECULE INHIBITORS THAT BLOCK KMT9 METHYLTRANSFERASE ACTIVITY AND FUNCTION” (ALBERT-LUDWIGS-UNIVERSITÄT FREIBURG, priority 2021, published 2025)
Read-outs that look alike come from different tables or passages of the source.

How the values were obtained:
KMT9 [1] = target: T1, KMT9 (Homo sapiens, UniProt Q9Y5N5); test: KMT9 thermal shift assay (SyproOrange); assay type: binding
T1 sequence (Q9Y5N5 1-214): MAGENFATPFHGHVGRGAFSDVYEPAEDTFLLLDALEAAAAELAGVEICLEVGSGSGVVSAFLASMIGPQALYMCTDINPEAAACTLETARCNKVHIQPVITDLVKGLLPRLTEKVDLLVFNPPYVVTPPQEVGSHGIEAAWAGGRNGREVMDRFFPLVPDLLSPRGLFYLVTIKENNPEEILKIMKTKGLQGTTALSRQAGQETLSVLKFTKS
T1 sequence (Q9UI30 1-120 isoform Q9UI30-2 partner): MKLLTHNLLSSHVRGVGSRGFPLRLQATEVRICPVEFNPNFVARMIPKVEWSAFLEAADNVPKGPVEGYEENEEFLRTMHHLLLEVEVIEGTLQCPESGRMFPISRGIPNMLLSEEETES
In short: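 Recombinant KMT9 was incubated with compound and SyproOrange at 25° C in 50 mM BTP pH 8.5, 1 mM MgCl2, 1 mM DTT. It was then heated from 20° C to 95° C at 1° C per 15 s with fluorescence read each step. Tm came from a Boltzmann sigmoidal fit; ΔTm relative to DMSO control, binned in 5 K ranges.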

KMT9 [2] = target: T1, KMT9; test: KMT9 methyltransferase inhibition assay, MTaseGlo luminescence (from entry 155); assay type: biochemical; settings: 100 nM KMT9, 5 μM ETF1, 1 μM SAM
In short: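 KMT9 (100 nM final) pre-incubated with inhibitor for 15 min at room temperature, then reacted with 5 μM ETF1 and 1 μM SAM for 2 h at 30° C. at 2% DMSO final. MTaseGlo luminescence read after 60 min detection; IC50 reported in four potency bins.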

KMT9 [3] = target: T1, KMT9; test: Microscale thermophoresis (MST) KMT9 binding
In short: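 His-tagged KMT9 (20 nM), RED-Tris-NTA labelled, titrated with varying compound concentrations in 25 mM HEPES pH 7.5, 100 mM NaCl, 1 mM DTT, 0.05% Tween. MST at 40% MST and 100% LED power, Nano-RED excitation; Kd binned A ≤10 nM, B 10–100, C 100–1000, D >1000 nM.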

[4] = ΔTm, 500 µM compound, 2 μM KMT9, 5X SO, read-out: Thermal shift
[5] = from entry 155: MTaseGlo assay, read-out: Inhibition
[6] = microscale thermophoresis, His-tag labelled KMT9 (20 nM), read-out: MST
[7] = ΔTm class, 500 uM compound, 2 μM KMT9, read-out: Thermal shift
[8] = IC50 class, MTaseGlo procedure (entries from 155 on), read-out: Inhibition
[9] = His-tag labelled KMT9 20 nM, Kd class, read-out: MST
[10] = 500 µM compound, 2 μM KMT9, read-out: Thermal shift (ΔTm)
[11] = MTaseGlo procedure (entries from 155), read-out: Inhibition (IC50)
[12] = His-tag labelled KMT9 20 nM, read-out: MST (Kd)

| ΔTm at 500 µM (KMT9 [1]; [4]) | IC50 (KMT9 [2]; [5]) | Kd (KMT9 [3]; [6]) | SMILES | also measured |
| --- | --- | --- | --- | --- |
| 15 to 20 °C | 1000 to 10000 nM | 100 to 1000 nM | O[C@@H]1[C@@H](CNCCCNCCc2ccccc2)C[C@@H](n2cc(-c3cc(Cc4ccccc4)cs3)c3cnc(Cl)nc32)[C@@H]1O [Compound 621, (1R,2S,3R,5R)-3-[5-(4-Benzylthiophen-2-yl)-2-chloropyrrolo[2,3-d]pyrimidin-7-yl]-5-[{{3-[(2-phenylethyl)amino]propyl}amino)methyl]cyclopentane-1,2-diol] |  |
|  |  |  | CS(=O)(=O)n1ccc(-c2cn([C@@H]3C[C@H](CNCCCNCCc4ccccc4)[C@@H](O)[C@H]3O)c3nc(Cl)ncc23)n1 [Compound 622, (1R,2S,3R,5R)-3-(2-Chloro-5-(1-(methylsulfonyl)-1H-pyrazol-3-yl)-7H-pyrrolo[2,3-d]pyrimidin-7-yl)-5-(((3-(phenethylamino)propyl)amino)methyl)cyclopentane-1,2-diol] | ΔTm at 500 µM (KMT9 [1]; [7]): 15 to 20 °C; IC50 (KMT9 [2]; [8]): 100 to 1000 nM; Kd (KMT9 [3]; [9]): 100 to 1000 nM |
| 10 to 15 °C | 1000 to 10000 nM | 100 to 1000 nM | O[C@@H]1[C@@H](CNCCCNCCc2ccccc2)C[C@@H](n2cc3c4c(ncnc42)NCCC3)[C@@H]1O [Compound 628, (1S,2R,3R,5R)-3-(((3-(Phenethylamino)propyl)amino)methyl)-5-(6,7,8,9-tetrahydro-2H-2,3,5,6-tetraazabenzo[cd]azulen-2-yl)cyclopentane-1,2-diol] |  |
| 10 to 15 °C | 1000 to 10000 nM | 10 to 100 nM | O[C@@H]1[C@@H](CNCCCNCCc2ccccc2)C[C@@H](n2cc3c4c(ncnc42)NCCCC3)[C@@H]1O [Compound 631, (1S,2R,3R,5R)-3-(((3-(phenethylamino)propyl)amino)methyl)-5-(7,8,9,10-tetrahydro-2,3,5,6-tetraazacycloocta [cd]inden-2 (6H)-yl)cyclopentane-1,2-diol] |  |
| 15 to 20 °C | 1000 to 10000 nM | 10 to 100 nM | O[C@@H]1[C@@H](CNCCCNCCc2ccccc2)C[C@@H](n2cc(-c3nc(Cc4ccccc4)cs3)c3cnc(Cl)nc32)[C@@H]1O [Compound 634, (1R,2S,3R,5R)-3-(5-(4-Benzylthiazol-2-yl)-2-chloro-7H-pyrrolo[2,3-d]pyrimidin-7-yl)-5-(((3-(phenethylamino)propyl)amino)methyl)cyclopentane-1,2-diol] |  |
| 15 to 20 °C | 100 to 1000 nM | 100 to 1000 nM | Nc1nc(Cl)nc2c1c(-c1nc(Cc3ccccc3)cs1)cn2[C@@H]1C[C@H](CNCCCNCCc2ccccc2)[C@@H](O)[C@H]1O [Compound 635, (1R,2S,3R,5R)-3-(4-Amino-5-(4-benzylthiazol-2-yl)-2-chloro-7H-pyrrolo[2,3-d]pyrimidin-7-yl)-5-(((3-(phenethylamino)propyl)amino)methyl)cyclopentane-1,2-diol] |  |
| > 20 °C | 100 to 1000 nM | ≤ 10 nM | Nc1nc(Cl)nc2c1c(-c1ccn(Cc3ccccc3)n1)cn2[C@@H]1C[C@H](CNCCCNCCc2ccccc2)[C@@H](O)[C@H]1O [Compound 636, (1R,2S,3R,5R)-3-(4-Amino-5-(1-benzyl-1H-pyrazol-3-yl)-2-chloro-7H-pyrrolo[2,3-d]pyrimidin-7-yl)-5-(((3-(phenethylamino)propyl)amino)methyl)cyclopentane-1,2-diol] |  |
| 10 to 15 °C | 1000 to 10000 nM | > 1000 nM | O[C@@H]1[C@@H](CNCCCNCCc2ccccc2)C[C@@H](n2cc(-c3cc(Cc4ccccc4)cs3)c3cncnc32)[C@@H]1O [Compound 637, (1R,2S,3R,5R)-3-(5-(4-benzylthiophen-2-yl)-7H-pyrrolo[2,3-d]pyrimidin-7-yl)-5-(((3-(phenethylamino)propyl)amino)methyl)cyclopentane-1,2-diol] |  |
| 15 to 20 °C | 1000 to 10000 nM | 100 to 1000 nM | O[C@@H]1[C@@H](CNCCCNCCc2ccccc2)C[C@@H](n2cc(-c3nccs3)c3cnc(Cl)nc32)[C@@H]1O [Compound 638, (1R,2S,3R,5R)-3-(2-Chloro-5-(thiazol-2-yl)-7H-pyrrolo[2,3-d]pyrimidin-7-yl)-5-(((3-(phenethylamino)propyl)amino)methyl)cyclopentane-1,2-diol] |  |
| 10 to 15 °C | 1000 to 10000 nM | > 1000 nM | O[C@@H]1[C@@H](CNCCCNCCc2ccccc2)C[C@@H](n2cc(-c3nc(Oc4ccccc4)cs3)c3cncnc32)[C@@H]1O [Compound 639, (1S,2R,3R,5R)-3-(((3-(Phenethylamino)propyl)amino)methyl)-5-(5-(4-phenoxythiazol-2-yl)-7H-pyrrolo[2,3-d]pyrimidin-7-yl)cyclopentane-1,2-diol] |  |
| 10 to 15 °C | 1000 to 10000 nM | > 1000 nM | CS(=O)(=O)n1ccc(-c2cn([C@@H]3C[C@H](CNCCCNCCc4ccccc4)[C@@H](O)[C@H]3O)c3ncncc23)n1 [Compound 640, (1R,2S,3R,5R)-3-(5-(1-(Methylsulfonyl)-1H-pyrazol-3-yl)-7H-pyrrolo[2,3-d]pyrimidin-7-yl)-5-(((3-(phenethylamino)propyl)amino)methyl)cyclopentane-1,2-diol] |  |
|  |  |  | O[C@@H]1[C@@H](CN(CCCNCCc2ccccc2)c2cn[nH]c2)C[C@@H](n2cc(-c3cccs3)c3cnc(Cl)nc32)[C@@H]1O [Compound 641, (1R,2S,3R,5R)-3-(2-Chloro-5-(thiophen-2-yl)-7H-pyrrolo[2,3-d]pyrimidin-7-yl)-5-(((3-(phenethylamino)propyl)(1H-pyrazol-4-yl)amino)methyl)cyclopentane-1,2-diol] | ΔTm at 500 µM (KMT9 [1]; [7]): 15 to 20 °C; IC50 (KMT9 [2]; [8]): 100 to 1000 nM; Kd (KMT9 [3]; [9]): ≤ 10 nM |
|  |  |  | CN(CCCNCCc1ccc(F)cc1)C[C@H]1C[C@@H](n2cc(-c3ccn(Cc4ccccc4)n3)c3cnc(Cl)nc32)[C@H](O)[C@@H]1O [Compound 642, (1R,2S,3R,5R)-3-[5-(1-Benzylpyrazol-3-yl)-2-chloropyrrolo[2,3-d]pyrimidin-7-yl]-5-{[(3-{[2-(4-fluorophenyl)ethyl]amino}propyl)(methyl)amino]methyl}cyclopentane-1,2-diol] | ΔTm at 500 µM (KMT9 [1]; [7]): 15 to 20 °C; IC50 (KMT9 [2]; [8]): 1000 to 10000 nM; Kd (KMT9 [3]; [9]): 10 to 100 nM |
|  |  |  | CN(CCCNCCc1ccc(F)cc1)C[C@H]1C[C@@H](n2cc(-c3ccn(Cc4ccccc4)n3)c3c(N)nc(Cl)nc32)[C@H](O)[C@@H]1O [Compound 643, (1R,2S,3R,5R)-3-[4-Amino-5-(1-benzylpyrazol-3-yl)-2-chloropyrrolo[2,3-d]pyrimidin-7-yl]-5-{[(3-{[2-(4-fluorophenyl)ethyl]amino}propyl)(methyl)amino]methyl}cyclopentane-1,2-diol] | ΔTm at 500 µM (KMT9 [1]; [10]): > 20 °C; IC50 (KMT9 [2]; [11]): 100 to 1000 nM; Kd (KMT9 [3]; [12]): ≤ 10 nM |
|  |  |  | CN(CCCNCCc1ccc(F)cc1)C[C@H]1C[C@@H](n2cc(-c3ccn(C)n3)c3cnc(Cl)nc32)[C@H](O)[C@@H]1O [Compound 644, (1R,2S,3R,5R)-3-[2-Chloro-5-(1-methylpyrazol-3-yl)pyrrolo[2,3-d]pyrimidin-7-yl]-5-{[(3-{[2-(4-fluorophenyl)ethyl]amino}propyl)(methyl)amino]methyl}cyclopentane-1,2-diol] | ΔTm at 500 µM (KMT9 [1]; [7]): ≤ 10 °C; IC50 (KMT9 [2]; [8]): > 10000 nM; Kd (KMT9 [3]; [9]): > 1000 nM |
|  |  |  | CN(CCCNCCc1ccc(F)cc1)C[C@H]1C[C@@H](n2cc(-c3ccn(C)n3)c3c(N)nc(Cl)nc32)[C@H](O)[C@@H]1O [Compound 645, (1R,2S,3R,5R)-3-[4-Amino-2-chloro-5-(1-methylpyrazol-3-yl)pyrrolo[2,3-d]pyrimidin-7-yl]-5-{[(3-{[2-(4-fluorophenyl)ethyl]amino}propyl)(methyl)amino]methyl}cyclopentane-1,2-diol] | ΔTm at 500 µM (KMT9 [1]; [10]): > 20 °C; IC50 (KMT9 [2]; [11]): 100 to 1000 nM; Kd (KMT9 [3]; [12]): 10 to 100 nM |
|  |  |  | Nc1nc(Cl)nc2c1c(-c1nc(Cc3ccccc3)cs1)cn2[C@@H]1C[C@H](CNCCCNCCc2ccc(F)cc2)[C@@H](O)[C@H]1O [Compound 646, (1R,2S,3R,5R)-3-(4-Amino-5-(4-benzylthiazol-2-yl)-2-chloro-7H-pyrrolo[2,3-d]pyrimidin-7-yl)-5-(((3-((4-fluorophenethyl)amino)propyl)amino)methyl)cyclopentane-1,2-diol] | ΔTm at 500 µM (KMT9 [1]; [7]): > 20 °C; IC50 (KMT9 [2]; [8]): 100 to 1000 nM; Kd (KMT9 [3]; [9]): 10 to 100 nM |
